Molecules are shown by their SMILES. pIC50: −log10 of the molar value.

The test deals with T1, HDAC11 (Homo sapiens, UniProt Q96DB2).
T1 construct: full-length human
T1 sequence (Q96DB2 1-347): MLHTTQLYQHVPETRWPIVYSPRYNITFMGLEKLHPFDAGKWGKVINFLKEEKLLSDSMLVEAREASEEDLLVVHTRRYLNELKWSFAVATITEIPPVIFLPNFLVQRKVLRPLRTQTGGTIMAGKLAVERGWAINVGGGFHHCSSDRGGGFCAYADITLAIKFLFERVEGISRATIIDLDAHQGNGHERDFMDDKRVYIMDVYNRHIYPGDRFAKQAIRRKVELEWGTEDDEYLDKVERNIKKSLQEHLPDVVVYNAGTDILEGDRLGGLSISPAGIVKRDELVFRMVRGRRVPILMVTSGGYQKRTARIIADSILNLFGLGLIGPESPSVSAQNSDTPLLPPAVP
Briefly: biochemical. Further details: continuous fluorescence deacylase assay with fatty acid-acylated TNFα-derived peptide substrate. The protocol: In the case of HDAC11, the full-length human was expressed and purified as described in previous work. A fluorescence-based HDAC11 assay was used. The fluorescence measurements were performed using a PerkinElmer Envision 2104 multilabel plate reader (Waltham, MA, USA) at λex = 320 nm and λem = 430 nm. The reaction mixture consisted of HDAC11 and the fatty acid-acylated peptide substrate derived from TNFα in a reaction buffer—comprising 50 mM HEPES, 2 mg/mL BSA, and 70 µM TCEP—at pH 7.4, which was adjusted with NaOH (total volume 40 μL). The reactions were incubated in black 384-well plates for 30 min (scan every 30 s) at room temperature, and the increase in relative fluorescence reflecting the product formation was monitored. Positive (HDAC11, substrate, DMSO, and buffer) and negative controls (substrate, DMSO, and vuffer) were included in every measurement.

Usually pIC50 stands for the IC50 on a negative log10 scale, so that one unit is a factor of ten. A higher pIC50 goes with a small IC50. Molecule `Nc1ccccc1NC(=O)c1ccc(CNC(=O)OCc2cccnc2)cc1` [Entinostat] showed a pIC50 of under 4.70.

The values above are taken from publication PMC10816272, “Comparative Structure-Based Virtual Screening Utilizing Optimized AlphaFold Model Identifies Selective HDAC11 Inhibitor” (International Journal of Molecular Sciences, 2024).
